Results on 19 molecules are retold here after patent US5849801A, “4-amino-5-oxy-2,6,6-trimethyl-2-cycloheptene compounds” (Tokyo Tanabe Company Limited, priority 1995, dated 1998).

Counter-ions that a name gives are not always drawn.

In assay [1] the test system is histamine-induced guinea pig bronchoconstriction. Description: Effect on histamine-induced guinea pig bronchoconstriction models. The assay is classed as in vivo, male Hartley guinea pigs. Conditions: inhalation for 30 seconds, hydrochloride, histamine 3 μg/kg i.v. after 2 minutes. As for the experimental part: After urethane anesthetization of male Hartley guinea pigs (body weight: 350~450 g, 5 per group, Nihon Crea Co.), a small cannula was inserted into trachea. Next, gallamine triethiodide (1 mg/kg) was intravenously administered, and the tracheal cannula was connected to a constant volume respirator. The artificial respiration was conducted with an air volume per breath of 7~10 ml, a breath frequency of 60/min and a lung application pressure of 10 cm water. The volume of air overflowing from the legs on the cannula side was recorded on a polygraph (RM6100: product of Nihon Koden Co.) with a model 7020 bronchospasm transducer (product of Ugo Basile). Hydrochloride of the test compounds were dissolved in physiological saline, and inhalation was performed with reference to the method of Minami et al. […] The inhalation load apparatus was prepared by directly incorporating an ultrasonic nebulizer into an artificial respiration circuit (Omron ultrasonic aspirator NE-U11B, product of […] Electric Co.). The test compound (mg/0.5 ml) was administered by inhalation for 30 seconds, and after 2 minutes histamine (3 μg/kg) was intravenously administered and the air overflow volume was measured. The bronchoconstriction rate was calculated as a percentage with 100 being the height of contraction when the airway was completely constricted. The inhibition rate was calculated by dividing the contraction rate of the test compound group by the contraction rate of the control group.

The subject of assay [2] is platelet aggregation induced by arachidonic acid. Briefly: Inhibiting effect on platelet aggregation (in vitro), arachidonic acid as aggregating agent. The assay is classed as cell-based, Japanese white male house rabbits. To be noted: Oryctolagus cuniculus; arachidonic acid 68.6 μg/ml, 37° C., platelet suspension. How it is done: (§1) Platelet rich plasma was prepared from Japanese white male house rabbits (body weight: 2.5~3.0 kg) following the method of Suzuki et al. (Suzuki, K. et al., The Clinical Report, Vol. 21, No. 13, p. 5263, 1987). The resulting platelet rich plasma solution was appropriately diluted with a Tris-Tyrode buffer solution (pH 7.4) to prepare a 4×10^5 platelet/μl platelet suspension to be used for the test. The platelet aggregation was measured using a platelet aggregometer (NBS Hematoracer 601, product of Nikoh Bioscience Co.). Specifically, 250 μl of the platelet suspension, 5 μl of a 96 mM calcium chloride solution and 5 μl of the test compound solution dissolved in methanol were added to a cuvette, and after incubating for one minute at 37° C., 20 μl of an aggregating agent was added and the maximum degree of aggregation occurring was determined. The aggregating agents used were platelet activating factor (PAF) (2.5 ng/ml) and arachidonic acid (68.6 μg/ml). The 50% inhibition concentration (IC50) was calculated from the results of measurement with various concentrations of each test compound.

Assay [3] deals with rat peripheral arterial occlusion models. Briefly: Effect on rat peripheral arterial occlusion models (5% lactic acid induced). The assay is classed as in vivo, SD rats. To be noted: 5 mg/kg, i.v., lower leg lesions at 14 days. How it is done: Models were prepared following the method of Iwamoto et al. (Iwamoto, M. et al., Japanese Pharmacology & Therapeutics, Vol. 14, Suppl. 5, p. 41, 1986). Upon minimal dissection of the femoral regions of SD rats (6 per group) with a body weight of 250~350 g under Nembutal anesthesia, 0.1 ml of 5% lactic acid was administered intraarterially. The rats were raised for 14 days under normal conditions, and observed for lesions of the lower legs. The grading for the lesions was: "1" for nigrities only at the nail tips, "2" for nigrities up to the digits, "3" for necrosis of the digits, and "4" deciduation of the digits. Each of the digits of the lower legs on the side where lactic acid had been administered were graded, and the overall grade was determined as the index of lesions. The disorder inhibition rate was determined by dividing the index of lesions in the drug-administered group by the index of lesions of the control group. The drugs were dissolved in physiological saline or dimethylsulfoxide, and injected through the caudal vein 5 minutes prior to injection of the 5% lactic acid.

In assay [4] the test system is calcium contraction of the thoracic aorta. Description: Effect on calcium contraction (in vitro), thoracic aorta specimens. Also on record: species or system Male SD rats. Conditions: Rattus norvegicus; 1×10^-7 M in dimethylsulfoxide; 0.3 mM calcium chloride, 80 mM KCl buffer. How it is done:
This was investigated according to the method of Ishibashi, et al. (Ishibashi, A. et al., Folia Pharmacologica Japonica, Vol. 82, p. 361, 1983). Male SD rats of body weight approximately 300 g were used to prepare thoracic aorta extract specimens, which were suspended and immobilized in a organ bath containing 10 ml of Krebs-Henseleit buffer solution at 37° C. through which a mixed gas of oxygen (95%) and carbon dioxide (5%) had been passed. After equilibrating the specimens, they were equilibrated in a buffer solution without calcium chloride and then in an isotonic calcium-free 80 mM potassium chloride buffer solution replaced with potassium ions, and a resting tension of 0.2 g was applied. Contraction was induced by addition of 0.3 mM calcium chloride. The test compounds were added 10 minutes prior to addition of the calcium solution. The percent inhibition of the test compounds were calculated using the first contraction as the control (100% contraction). The test compounds were used for the test as solutions in dimethylsulfoxide at a 1×10^-7 M concentration.

Assay [5] relates to blood pressure of anesthetized rats. Description: Effect on blood pressure of anesthetized rats. The format is in vivo, Male SD rats. To be noted: Rattus norvegicus, intravenous, diastolic, urethane anesthesia, read-out: Reduction of blood pressure (%). As for the experimental part:
Male SD rats (body weight: 250~350 g, product of Nihon Crea Co.) were placed under urethane anesthesia and then a sphygmomanometric pressure transducer was inserted into the left cervical artery and recording was made on a polygraph (RM6100, product of Nihon Koden Co.) using a strain pressure […], product of Nihon Koden Co.). The test compounds were dissolved in physiological saline and administered intravenously. The change in blood pressure was indicated as the reduction rate from the initial value of diastolic blood pressure just prior to administration of the test compound.

For assay [6], the system named is platelet aggregation induced by platelet activating factor (PAF). Description: Inhibiting effect on platelet aggregation (in vitro), platelet activating factor (PAF) as aggregating agent. To be noted: Oryctolagus cuniculus; PAF 2.5 ng/ml, 37° C., platelet suspension. The assay is classed as cell-based, Japanese white male house rabbits. As for the experimental part:
as §1

In the case of `CC1=CC(N2CCCCC2)C(O)C(C)(C)CC1=O` (single isomer, unassigned; (-)) [(-) Compound of Example 35, (-)-5-hydroxy-4-piperidino-2,6,6-trinethyl-2-cyclohepten-1-one], the Brochoconstriction inhibition rate in assay [1] (10.0 mg/0.5 ml) is listed as 64%. A word on the IC50: it is the concentration that inhibits the measured activity by half. Usually inhibition stands for the drop in the measured response relative to a control, in per cent. Molecule `CC1=CC(NCc2ccccc2)C(O)C(C)(C)CC1=O` (centres unmarked) [Example 1, 4-benzylamino-5-hydroxy-2,6,6-trimethyl-2-cyclohepten-1-one] gave a 50% inhibitory concentration (IC50) in assay [2] of 100 µM. This molecule also registered an Inhibition rate in assay [3] (in physiological saline) of 42%. The inhibition at 0.1 µM in assay [4] is 48%.

Turning to `CC1=CC(NCCc2ccccc2)C(O)C(C)(C)CC1=O` (centres unmarked) [Example 2, 4-(2-phenylethylamino)-5-hydroxy-2,6,6-trimethyl-2-cyclohepten-1-one], in assay [5], the inhibition in vivo at 1 mg/kg was 16% and the inhibition in vivo at 3 mg/kg was determined as 31%. In the case of `CCOC(=O)c1ccc(CNC2C=C(C)C(=O)CC(C)(C)C2O)cc1` (centres unmarked) [Example 4, 5-hydroxy-4-(4-ethoxycarbonylbenzylamino)-2,6,6-trimethyl-2-cyclohepten-1-one], in assay [4], the inhibition at 0.1 µM was 33%. For `CC1=CC(Nc2ccccc2)C(O)C(C)(C)CC1=O` (centres unmarked) [Example 5, 5-hydroxy-4-phenylamino-2,6,6-trimethyl-2-cyclohepten-1-one], the Inhibition rate in assay [3] (in DMSO) is recorded as 35%. For `CC1=CC(NC2CCCC2)C(O)C(C)(C)CC1=O` (centres unmarked) [Example 7, 4-cyclopentylamino-5-hydroxy-2,6,6-trimethyl-2-cyclohepten-1-one hydrochloride], the inhibition in vivo at 10 mg/kg in assay [5] came to 34%.

`CC1=CC(NC2CCCCC2)C(O)C(C)(C)CC1=O` (centres unmarked) [Example 8, 4-cyclohexylamino-5-hydroxy-2,6,6-trimethy-2-cyclohepten-1-one hydrochloride]: the inhibition in vivo at 10 mg/kg in assay [5] was determined as 45%. On to `CCCCNC1C=C(C)C(=O)CC(C)(C)C1O.Cl` (centres unmarked) [Example 9, 4-(1-butylamino)-5-hydroxy-2,6,6-trimethyl-2-cyclohepten-1-one hydrochloride], for which, in assay [5], the inhibition in vivo at 1 mg/kg came out at 14%, the inhibition in vivo at 3 mg/kg is 32% and the inhibition in vivo at 10 mg/kg is 51%. In assay [1] (1.0 mg/0.5 ml), this molecule gave a Brochoconstriction inhibition rate of 57%. Turning to `COCCNC1C=C(C)C(=O)CC(C)(C)C1O` (centres unmarked) [Example 10, 5-hydroxy-4-(2-methoxyethylamino)-2,6,6-trimethyl-2-cyclohepten-1-one], the inhibition at 0.1 µM in assay [4] came to 32%. With `CC1=CC(NC(C)(C)C)C(O)C(C)(C)CC1=O` (centres unmarked) [Example 12, 5-hydroxy-4-(tert-butylamino)-2,6,6-trimethyl-2-cyclohepten-1-one], the inhibition in vivo at 10 mg/kg in assay [5] is 33%. On the same count and under the same terms, then `CCN(CC)C1C=C(C)C(=O)CC(C)(C)C1O` (centres unmarked) [Example 13, 4-diethylamino-5-hydroxy-2,6,6-trimethyl-2-cyclohepten-1-one], with 28%. With `CC1=CC(N2CCCC2)C(O)C(C)(C)CC1=O.Cl` (centres unmarked) [Example 15, 5-hydroxy-4-pyrrolidino-2,6,6-trimethyl-2-cyclohepten-1-one hydrochloride], the inhibition in vivo at 10 mg/kg in assay [5] amounted to 26%. Also, the Brochoconstriction inhibition rate in assay [1] (3.0 mg/0.5 ml) is listed as 73%. With `CC1=CC(N2CCCCCC2)C(O)C(C)(C)CC1=O` (centres unmarked) [Example 17, 4-hexamethyleneimino-5-hydroxy-2,6,6-trimethyl-2-cyclohepten-1-one], the inhibition in vivo at 10 mg/kg in assay [5] was determined as 42%.

On to `CC1=CC(N2CCOCC2)C(O)C(C)(C)CC1=O` (centres unmarked) [Example 18, 5-hydroxy-4-morpholino-2,6,6-trimethyl-2-cyclohepten-1-one], for which, in assay [6], inhibition was half-maximal at 98 µM (IC50). Further, the inhibition at 0.1 µM in assay [4] was 39%. In assay [1] (3.0 mg/0.5 ml), `CC1=CC(N2CCN(C)CC2)C(O)C(C)(C)CC1=O` (centres unmarked) [Example 22, 5-hydroxy-4-(4-methylpiperazino)-2,6,6-trimethyl-2-cyclohepten-1-one] showed a Brochoconstriction inhibition rate of 17%. Also, the inhibition at 0.1 µM in assay [4] was determined as 48%. Turning to `CC1=CC(N2CCC(O)CC2)C(O)C(C)(C)CC1=O` (centres unmarked) [Example 23, 4-(4-hydroxypiperidino)-5-hydroxy-2,6,6-trimethyl-2-cyclohepten-1-one], in assay [1] (3.0 mg/0.5 ml), the Brochoconstriction inhibition rate stood at 23%.

`CC1=CC(N2CCC3(CC2)OCCO3)C(O)C(C)(C)CC1=O` (centres unmarked) [Example 26, 4-(1,4-dioxa-8-aza-spiro[5.4]decan-8-yl)-5-hydroxy-2,6,6-trimethyl-2-cyclohepten-1-one] yielded an IC50 in assay [2] of 36 µM. In assay [1] (3.0 mg/0.5 ml), the Brochoconstriction inhibition rate was 53%. For `CC1=CC(N(C)Cc2ccccc2)C(O)C(C)(C)CC1=O` (centres unmarked) [Example 28, 5-hydroxy-4-(N-methylbenzylamino)-2,6,6-trimethyl-2-cyclohepten-1-one], in assay [2], the IC50 amounted to 11 µM. Take `CC1=CC(N2CCCCC2)C(O)C(C)(C)CC1=NO` (centres unmarked) [Example 30, 5-hydroxy-4-piperidino-2,6,6-trimethyl-2-cyclohepten-1-one oxime]: the Brochoconstriction inhibition rate in assay [1] (3.0 mg/0.5 ml) is 42%.
